Test systems include K-562 leukemia; OVCAR-8 ovarian; TK-10 renal; SNB-75 CNS; OVCAR-3 ovarian; SK-MEL-2 melanoma; HCC-2998 colon; A498 renal; RXF 393 renal.
Common to all, as to test: growth of human tumour cells (NCI), 48 h

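Values below derive from 48-hour exposures of cells grown in 96-well plates, with endpoints linearly interpolated between the two concentrations bracketing the appropriate inhibition level. GI50: concentration for 50% inhibition of growth. At the TGI there is no net growth.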

Turning to `N/N=C1\C(=O)N(c2ccc(Cl)cc2Cl)C(=O)C(=O)C1c1nc2ccccc2o1` (stereo not drawn), the TGI in the assay with K-562 leukemia, in the assay on OVCAR-8 ovarian, in the assay with TK-10 renal, in the assay on SNB-75 CNS, in the assay on OVCAR-3 ovarian and in the assay with SK-MEL-2 melanoma was greater than 100 µM throughout. Also, the TGI in the assay on HCC-2998 colon and in the assay with A498 renal was greater than 100 µM each time.
Turning to `c1ccc2c(c1)oc1ccc3nsnc3c12`, the TGI is greater than 100 µM in the assay with K-562 leukemia; greater than 10 µM in the assay on TK-10 renal; greater than 100 µM with SNB-75 CNS; greater than 100 µM in the assay on OVCAR-3 ovarian; greater than 100 µM in the assay on SK-MEL-2 melanoma; greater than 100 µM in the assay with RXF 393 renal. Also, the TGI in the assay on HCC-2998 colon and in the assay on A498 renal was greater than 100 µM in each case.
For the compound `O=C1/C(=C/c2ccccc2)CN(C(=O)CCN2CCCC2)C/C1=C\c1ccccc1`, the TGI is 4.69 µM with K-562 leukemia; 6.17 µM in the assay on OVCAR-8 ovarian; 8.62 µM in the assay on TK-10 renal; 13.5 µM with SNB-75 CNS; 7.66 µM with OVCAR-3 ovarian; 8.41 µM with SK-MEL-2 melanoma. In addition, the figures for the TGI with RXF 393 renal, in the assay on HCC-2998 colon and in the assay on A498 renal were 5.24 µM, 3.22 µM and 13 µM, respectively.
`N.N.N.N.N.O=[N+]([O-])[O-].[Co+3].[O-][Cl+3]([O-])([O-])[O-]`: the GI50 in the assay on K-562 leukemia was greater than 100 µM; in the assay with OVCAR-8 ovarian, greater than 100 µM; with TK-10 renal, greater than 100 µM; in the assay with SNB-75 CNS, 29.6 µM; in the assay on OVCAR-3 ovarian, greater than 100 µM; with SK-MEL-2 melanoma, greater than 100 µM. Besides, the GI50 in the assay on HCC-2998 colon and in the assay with A498 renal was greater than 100 µM in each case. Moreover, the TGI with K-562 leukemia, with OVCAR-8 ovarian, with TK-10 renal, with SNB-75 CNS, with OVCAR-3 ovarian and with SK-MEL-2 melanoma was greater than 100 µM each time. Further, the TGI in the assay on HCC-2998 colon and in the assay on A498 renal was greater than 100 µM in each case.
Regarding `COc1ccc(/C(Cl)=C/c2cc(OC)ccc2OC)cc1`, the TGI in the assay with K-562 leukemia was greater than 100 µM; in the assay on OVCAR-8 ovarian, greater than 100 µM; with SNB-75 CNS, greater than 100 µM; in the assay with RXF 393 renal, 69.6 µM; in the assay on HCC-2998 colon, greater than 100 µM; in the assay with A498 renal it was greater than 100 µM.
On to `C=CCC1=C(C)C[C@@H]2CCC(=O)C=C12`, for which the TGI in the assay with K-562 leukemia, with OVCAR-8 ovarian, with TK-10 renal, with SNB-75 CNS, in the assay with OVCAR-3 ovarian and in the assay on SK-MEL-2 melanoma was greater than 100 µM each time. The TGI in the assay with RXF 393 renal and with A498 renal was greater than 100 µM in each case.
Consider `COc1ccc(CCn2c(=O)c3ccccc3n(C)c2=O)cc1`, for which the TGI with K-562 leukemia was greater than 100 µM; in the assay with OVCAR-8 ovarian, greater than 100 µM; in the assay on TK-10 renal, greater than 100 µM; with SNB-75 CNS, greater than 100 µM; in the assay with OVCAR-3 ovarian, greater than 100 µM; with SK-MEL-2 melanoma it was 85.6 µM. Further, the TGI in the assay with HCC-2998 colon and in the assay on A498 renal was greater than 100 µM each time.
As to `NNC(=O)C(=O)N/N=C1\CCC(=O)CC1C(=O)CCC(=O)Nc1ccc(Cl)cc1` (stereo not drawn), the TGI in the assay on K-562 leukemia, in the assay on OVCAR-8 ovarian, in the assay on TK-10 renal, in the assay on SNB-75 CNS, with OVCAR-3 ovarian and in the assay on SK-MEL-2 melanoma was greater than 100 µM throughout. The TGI in the assay on RXF 393 renal, in the assay on HCC-2998 colon and with A498 renal was greater than 100 µM each time.
In the case of `COc1ccc(CCc2cc(OC)cc(OC)c2)cc1`, the TGI in the assay with K-562 leukemia was 71.8 µM; in the assay with OVCAR-8 ovarian, greater than 100 µM; in the assay on TK-10 renal, greater than 100 µM; with SNB-75 CNS, greater than 81.3 µM; in the assay with OVCAR-3 ovarian it was greater than 65.9 µM; with SK-MEL-2 melanoma it was greater than 62 µM. The values for the TGI in the assay with RXF 393 renal, in the assay on HCC-2998 colon and in the assay on A498 renal were 63.8 µM, 51.2 µM and greater than 100 µM, respectively.
Take `C=CCO/N=C(\OC(=O)c1ccc([N+](=O)[O-])cc1)c1ccccc1`: the TGI with K-562 leukemia, with OVCAR-8 ovarian, with TK-10 renal, in the assay with SNB-75 CNS, in the assay on OVCAR-3 ovarian and with SK-MEL-2 melanoma was greater than 100 µM each time. The TGI in the assay on HCC-2998 colon and in the assay with A498 renal was greater than 100 µM in each case.
As to `CC(=O)O[C@]1(C)OC(=O)[C@@H](CC(C)C)N1[N+](=O)[O-]`, the TGI in the assay with K-562 leukemia, with OVCAR-8 ovarian, with TK-10 renal, in the assay with SNB-75 CNS, in the assay on OVCAR-3 ovarian and in the assay with SK-MEL-2 melanoma was greater than 100 µM in each case. In addition, the TGI with RXF 393 renal, with HCC-2998 colon and with A498 renal was greater than 100 µM in each case.
Turning to `Cc1c(NC(=S)NC(=O)c2ccc([N+](=O)[O-])cc2)c(=O)n(-c2ccccc2)n1C`, the TGI in the assay on K-562 leukemia, in the assay on OVCAR-8 ovarian, in the assay on TK-10 renal, in the assay with SNB-75 CNS, in the assay on OVCAR-3 ovarian and with SK-MEL-2 melanoma was greater than 100 µM in each case. The TGI with RXF 393 renal, in the assay on HCC-2998 colon and with A498 renal was greater than 100 µM each time.
With `CC1=NN(C(=O)c2ccc(Cl)cc2)C(=O)/C1=C/c1ccccc1O`, the TGI with K-562 leukemia, in the assay on OVCAR-8 ovarian, in the assay on TK-10 renal, with OVCAR-3 ovarian, in the assay on SK-MEL-2 melanoma and in the assay with RXF 393 renal was greater than 100 µM in each case. The TGI in the assay on HCC-2998 colon and in the assay on A498 renal was greater than 100 µM each time.
Take `c1ccc2c(-c3nc(-c4c[nH]c5ccncc45)cs3)c[nH]c2c1`: the GI50 was 2.05 µM in the assay with K-562 leukemia; 1.97 µM with OVCAR-8 ovarian; 2.76 µM in the assay with TK-10 renal; 10.3 µM in the assay on SNB-75 CNS; 1.98 µM in the assay with OVCAR-3 ovarian; 2.09 µM in the assay on SK-MEL-2 melanoma. Also, the GI50 is 1.55 µM in the assay with RXF 393 renal, 1.87 µM with HCC-2998 colon and 10 µM with A498 renal. For the same compound, the TGI stood at 5.29 µM with K-562 leukemia; 4.33 µM in the assay on OVCAR-8 ovarian; 4.74 µM with TK-10 renal; 22.2 µM with SNB-75 CNS; 3.98 µM in the assay on OVCAR-3 ovarian; 3.95 µM in the assay on SK-MEL-2 melanoma. In addition, the TGI in the assay with RXF 393 renal was 3.03 µM; in the assay with HCC-2998 colon, 3.42 µM; with A498 renal it was 22.1 µM.

The values above are taken from PubChem BioAssay (NCI).
